According to publication PMC7738880, “Identification of novel CD44v6-binding peptides that block CD44v6 and deliver a pro-apoptotic peptide to tumors to inhibit tumor growth and metastasis in mice” (Theranostics, 2021):
Residues, ends and D or L forms follow the SMILES beside them.

What was measured:
MDA-MB231 cells [1] = experiment: Annexin V/propidium iodide apoptosis assay, MDA-MB231; type: cell-based, human; conditions: 2 h, versus combined NLN or NEW and KLA
Description: (§1) For apoptosis assays, cells were plated in 6-well plates at a density of 5 × 10^5 cells per well overnight and treated with different concentrations of peptides (0, 2, 4, 8, 16, 32, 64, 128, and 256 µM) at 37 °C for 2 h. Cells were harvested, washed, and mixed with annexin V binding buffer. Then, 1 μg/mL of propidium iodide and 5 μL of APC annexin V reagent (ThermoFisher Scientific, Waltham, MA) were added to stain necrotic and apoptotic cells. Percent of annexin V-positive and propidium iodide-negative cells were measured using flow cytometry.

MDA-MB231 cells [2] = experiment: Intracellular trafficking with MitoTracker and LysoTracker; type: cell-based, human; conditions: peptide 10 µM, 37 °C, 2-4 h, confocal
Description: To examine the intracellular trafficking of peptides cells were incubated with peptides (10 µM) at 37 °C for 2 h and stained with MitoTracker Deep Red FM (ThermoFisher Scientific), a mitochondrial marker. In another set of experiments, cells were incubated with peptides at 37 °C for 4 h and stained with LysoTracker Red DND-99 (ThermoFisher Scientific), a late endosome/lysosome marker. After staining, cells were fixed with 4% paraformaldehyde for 10 min at room temperature, stained with DAPI, and then mounted using ProLong gold anti-fade reagent (ThermoFisher Scientific). Subcellular fluorescence was detected using a confocal microscope (Zeiss).

4T1-luc cells = experiment: 4T1-luc orthotopic spontaneous metastasis model; type: in vivo; conditions: 10 mg/kg i.v. thrice weekly for 3 weeks; for hematologic parameters and liver and kidney functional marker levels: n = 5/group; for luminescence signals and total photon flux from the whole body: n = 10 per group; for luminescence signals and total photon flux from the whole body / TUNEL-positive apoptotic cells in primary tumor tissues / number of metastatic tumor nodules / percent survival / tumor volume / tumor weight: more efficiently than combined NLN or NEW and KLA
Description: (§2) 4T1-luc cells (1 × 10^6 cells) were orthotopically inoculated into the mammary fat pads in 6-week-old female BALB/c mice. Panc-1 cells (1 × 10^6 cells) were subcutaneously inoculated into lower right flank in 6-week-old female BALB/c nude mice To monitor 4T1-luc tumor growth, mice were intraperitoneally injected with D-luciferin (150 mg/kg body weight), incubated for 10 min, and subjected to a whole-body bioluminescence imaging using the IVIS imaging system (Perkin Elmer). At two weeks after the inoculation, mice were randomly sorted into groups based on the luminescence intensity (4T1-luc) or tumor size (Panc-1). CD44v6-binding peptides were administered intravenously to 4T1 tumor-bearing mice (n = 6 per group) through the tail vein (14.2 mg/kg body weight, thrice weekly for three weeks) alone or in combination with crizotinib. Crizotinib in 5% DMSO was administered orally (12.5 and 25 mg/kg body weight, twice weekly for three weeks). CD44v6-targeted pro-apoptotic peptides or CD44v6-binding peptides and pro-apoptotic peptide in combination were intravenously administered to 4T1 or Panc-1 tumor-bearing mice (n = 10 per group) through the tail vein (10 mg/kg body weight, thrice weekly for 3 weeks). Primary tumor growth was monitored by measuring tumor volumes using a caliper and total photon flux in the whole body using the IVIS imaging system. The body weights and tumor ulceration were monitored throughout the treatment period. At the end of the treatments, half of the mice were used for the collection of blood, sacrificed, and the primary tumor weights and numbers of metastatic tumor nodules in the isolated lungs were determined. The remaining mice were maintained until death to determine the survival rates. The hematological parameters and liver and kidney function markers in plasma and serum samples were analyzed as described above. The normal ranges of hematological parameters of the BALB/c mouse and BALB/c nude mouse were obtained from Charles River Laboratories website (www.criver.com).

4T1 cells = experiment: Annexin V/propidium iodide apoptosis assay, 4T1; type: cell-based, mouse; conditions: 2 h, versus combined NLN or NEW and KLA
Description: as §1

Panc-1 cells [3] = experiment: Annexin V/propidium iodide apoptosis assay, Panc-1; type: cell-based, human; conditions: 2 h, versus combined NLN or NEW and KLA
Description: as §1

Panc-1 cells [4] = experiment: Panc-1 subcutaneous spontaneous metastasis model; type: in vivo, BALB/c nude mouse; conditions: 10 mg/kg i.v. thrice weekly for 3 weeks; more efficiently than combined NLN or NEW and KLA
Description: as §2

MDA-MB231-luc cells = experiment: MDA-MB231-luc experimental lung metastasis model; type: in vivo
Description: A mouse model of lung metastasis of breast cancer was prepared by injecting 1 × 10^6 MDA-MB231-luc cells into 6-week-old female BALB/c nude mice via tail vein. To monitor the localization of the tumor cells in the lungs, the mice were injected intraperitoneally with D-luciferin at a dose of 150 mg/kg body weight and subjected to a whole-body bioluminescence imaging using IVIS imaging system (Perkin Elmer) after a 10-min resting period. Mice (n = 10 per group) were randomly assigned to groups based on the luminescence intensity. At 1 h after tumor cell injection, tumor-bearing mice received intravenous injections of CD44v6-binding peptides through the tail vein (14.2 mg/kg body weight, thrice weekly for 3 weeks) alone or in combination with orally administered crizotinib in 5% dimethyl sulfoxide (DMSO) (25 mg/kg of body weight, twice weekly for 3 weeks) as previously described, [29]. Metastatic tumor growth after treatments was monitored by measuring the total photon flux (number of photons/second) in the whole body using the IVIS imaging system. The body weights of mice and tumor ulceration were monitored throughout the treatment period. At the end of the treatment period, half of the mice (n = 5 per group) were used for the collection of blood, sacrificed, the lungs were harvested and weighed, and the numbers of metastatic tumor nodules in the lungs were counted. The remaining mice (n = 5 per group) were maintained until death to determine the survival rates. For the analysis of hematological parameters, 1 mL of blood was collected from each mouse and separated into 500 µL aliquots used to prepare serum and plasma. Serum was obtained by centrifuging clotted blood at 4 °C twice, followed by filtration (pore size: 0.22 µm). Plasma was obtained by centrifuging ethylenediaminetetraacetic acid-treated samples. Hematological parameters and liver and kidney function markers were measured by DGMIF (Daegu, Korea).

[5] = biological target: CD44v6, endogenous in MDA-MB231 human breast tumor cells (human (endogenous in MDA-MB231)); experiment: saturation binding to cells; saturation binding assays on MDA-MB231, 4T1, Panc-1 and MCF7 cells (Figure S2A); method and label of the peptide not given
Sequence of CD44v6, endogenous in MDA-MB231 human breast tumor cells (human (endogenous in MDA-MB231)) (P16070 21-742): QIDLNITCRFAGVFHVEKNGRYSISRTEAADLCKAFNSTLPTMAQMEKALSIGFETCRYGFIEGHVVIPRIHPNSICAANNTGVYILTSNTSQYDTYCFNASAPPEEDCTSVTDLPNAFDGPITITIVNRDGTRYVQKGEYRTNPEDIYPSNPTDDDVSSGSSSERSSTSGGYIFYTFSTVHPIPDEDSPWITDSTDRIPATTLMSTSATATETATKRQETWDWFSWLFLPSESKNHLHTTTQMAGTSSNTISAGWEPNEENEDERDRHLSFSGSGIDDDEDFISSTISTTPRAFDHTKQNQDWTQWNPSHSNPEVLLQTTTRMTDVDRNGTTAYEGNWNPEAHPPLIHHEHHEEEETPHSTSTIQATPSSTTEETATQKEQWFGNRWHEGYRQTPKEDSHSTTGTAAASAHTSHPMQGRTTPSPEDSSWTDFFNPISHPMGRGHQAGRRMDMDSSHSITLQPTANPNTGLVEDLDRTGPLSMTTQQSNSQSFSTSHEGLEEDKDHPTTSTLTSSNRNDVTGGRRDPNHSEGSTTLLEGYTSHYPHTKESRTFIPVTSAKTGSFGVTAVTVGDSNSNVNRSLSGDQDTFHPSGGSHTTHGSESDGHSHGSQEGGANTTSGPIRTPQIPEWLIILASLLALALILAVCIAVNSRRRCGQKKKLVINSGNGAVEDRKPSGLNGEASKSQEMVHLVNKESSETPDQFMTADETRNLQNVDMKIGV

Q: `CC(C)C[C@H](NC(=O)[C@H](CCCCN)NC(=O)CNC(=O)CNC(=O)CNC(=O)[C@H](CS)NC(=O)[C@H](CO)NC(=O)[C@H](CCCCN)NC(=O)[C@H](CC(C)C)NC(=O)[C@H](CCC(N)=O)NC(=O)[C@H](Cc1c[nH]c2ccccc12)NC(=O)[C@H](CCC(=O)O)NC(=O)[C@H](CC(N)=O)NC(=O)[C@@H](N)CS)C(=O)N[C@@H](C)C(=O)N[C@@H](CCCCN)C(=O)N[C@@H](CC(C)C)C(=O)N[C@@H](C)C(=O)N[C@@H](CCCCN)C(=O)N[C@@H](CCCCN)C(=O)N[C@@H](CC(C)C)C(=O)N[C@@H](C)C(=O)N[C@@H](CCCCN)C(=O)N[C@@H](CC(C)C)C(=O)N[C@@H](C)C(=O)N[C@@H](CCCCN)C(=O)O` [NEW-KLA] (H-CNEWQLKSCGGGKLAKLAKKLAKLAK-OH) was tested. Which “induction of apoptosis, MDA-MB231” value (MDA-MB231 cells [1]) did it give?
A: more efficiently than the combined treatment

Q: And the intracellular localization (MDA-MB231 cells [2])?
A: closely co-localized with mitochondria and lysosomes

Q: And the “hematologic parameters and liver and kidney functional marker levels” value (4T1-luc cells)?
A: within or close to the normal ranges

Q: And the “luminescence signals and total photon flux from the whole body” value (4T1-luc cells)?
A: decreased

Q: What about the “TUNEL-positive apoptotic cells in primary tumor tissues” value (4T1-luc cells) of the same molecule?
A: increasing

Q: What about the “number of metastatic tumor nodules” value (4T1-luc cells) of the same molecule?
A: reduced

Q: And the percent survival (4T1-luc cells)?
A: increasing

Q: And the tumor volume (4T1-luc cells)?
A: reduced

Q: And the tumor weight (4T1-luc cells)?
A: reduced

Q: What about the “induction of apoptosis, 4T1” value (4T1 cells) of the same molecule?
A: more efficiently than the combined treatment

Q: What about the “induction of apoptosis, Panc-1” value (Panc-1 cells [3]) of the same molecule?
A: more efficiently than the combined treatment

Q: What about the “percent survival and TUNEL-positive apoptotic cells in tumor tissues” value (Panc-1 cells [4]) of the same molecule?
A: increased

Q: And the “tumor growth and metastasis to the lungs” value (Panc-1 cells [4])?
A: inhibited

Q: Which results are given for `CC[C@H](C)[C@H](NC(=O)[C@@H](NC(=O)[C@H](CC(N)=O)NC(=O)[C@H](CC(C)C)NC(=O)[C@H](CC(N)=O)NC(=O)[C@@H](N)CS)[C@@H](C)O)C(=O)N[C@@H](CC(=O)O)C(=O)N[C@H](C(=O)N[C@@H](CS)C(=O)NCC(=O)NCC(=O)NCC(=O)N[C@@H](CCCCN)C(=O)N[C@@H](CC(C)C)C(=O)N[C@@H](C)C(=O)N[C@@H](CCCCN)C(=O)N[C@@H](CC(C)C)C(=O)N[C@@H](C)C(=O)N[C@@H](CCCCN)C(=O)N[C@@H](CCCCN)C(=O)N[C@@H](CC(C)C)C(=O)N[C@@H](C)C(=O)N[C@@H](CCCCN)C(=O)N[C@@H](CC(C)C)C(=O)N[C@@H](C)C(=O)N[C@@H](CCCCN)C(=O)O)[C@@H](C)O` [NLN-KLA] (H-CNLNTIDTCGGGKLAKLAKKLAKLAK-OH)?
A: induction of apoptosis, MDA-MB231 (MDA-MB231 cells [1]): more efficiently than the combined treatment; intracellular localization (MDA-MB231 cells [2]): closely co-localized with mitochondria and lysosomes; hematologic parameters and liver and kidney functional marker levels (4T1-luc cells): within or close to the normal ranges; luminescence signals and total photon flux from the whole body (4T1-luc cells): decreased; TUNEL-positive apoptotic cells in primary tumor tissues (4T1-luc cells): increasing; number of metastatic tumor nodules (4T1-luc cells): reduced; percent survival (4T1-luc cells): increasing; tumor volume (4T1-luc cells): reduced; tumor weight (4T1-luc cells): reduced; induction of apoptosis, 4T1 (4T1 cells): more efficiently than the combined treatment; induction of apoptosis, Panc-1 (Panc-1 cells [3]): more efficiently than the combined treatment; percent survival and TUNEL-positive apoptotic cells in tumor tissues (Panc-1 cells [4]): increased; tumor growth and metastasis to the lungs (Panc-1 cells [4]): inhibited

Q: With `C[C@@H](Oc1cc(-c2cnn(C3CCNCC3)c2)cnc1N)c1c(Cl)ccc(F)c1Cl` [crizotinib, reference compound] as the molecule, how does the “growth of MDA-MB231-luc metastases in the lungs” value (MDA-MB231-luc cells; crizotinib 25 mg/kg oral twice weekly for 3 weeks) read?
A: inhibited

Q: And the survival rate (MDA-MB231-luc cells; peptide 14.2 mg/kg i.v. thrice weekly or crizotinib 25 mg/kg oral twice weekly, 3 weeks, single treatment)?
A: increased the survival rate

B1: … peptide (NEW), label not stated (peptide)
peptide: CNEWQLKSC
Q: How did the Kd [5] turn out when B1 was run?
A: 18 µM

B2: … peptide (NLN), label not stated (peptide)
peptide: CNLNTIDTC
Q: B2 was tested. Which Kd [5] did it give?
A: 12 µM
